The results in this text go back to US11180474B2 (BRISTOL-MYERS SQUIBB COMPANY, priority 2016, dated 2021).

One assay addresses T1, human TLR9 (Homo sapiens, UniProt Q9NR96).
T1 construct: host or cells: HEK-Blue cells
T1 sequence (Q9NR96 26-1032): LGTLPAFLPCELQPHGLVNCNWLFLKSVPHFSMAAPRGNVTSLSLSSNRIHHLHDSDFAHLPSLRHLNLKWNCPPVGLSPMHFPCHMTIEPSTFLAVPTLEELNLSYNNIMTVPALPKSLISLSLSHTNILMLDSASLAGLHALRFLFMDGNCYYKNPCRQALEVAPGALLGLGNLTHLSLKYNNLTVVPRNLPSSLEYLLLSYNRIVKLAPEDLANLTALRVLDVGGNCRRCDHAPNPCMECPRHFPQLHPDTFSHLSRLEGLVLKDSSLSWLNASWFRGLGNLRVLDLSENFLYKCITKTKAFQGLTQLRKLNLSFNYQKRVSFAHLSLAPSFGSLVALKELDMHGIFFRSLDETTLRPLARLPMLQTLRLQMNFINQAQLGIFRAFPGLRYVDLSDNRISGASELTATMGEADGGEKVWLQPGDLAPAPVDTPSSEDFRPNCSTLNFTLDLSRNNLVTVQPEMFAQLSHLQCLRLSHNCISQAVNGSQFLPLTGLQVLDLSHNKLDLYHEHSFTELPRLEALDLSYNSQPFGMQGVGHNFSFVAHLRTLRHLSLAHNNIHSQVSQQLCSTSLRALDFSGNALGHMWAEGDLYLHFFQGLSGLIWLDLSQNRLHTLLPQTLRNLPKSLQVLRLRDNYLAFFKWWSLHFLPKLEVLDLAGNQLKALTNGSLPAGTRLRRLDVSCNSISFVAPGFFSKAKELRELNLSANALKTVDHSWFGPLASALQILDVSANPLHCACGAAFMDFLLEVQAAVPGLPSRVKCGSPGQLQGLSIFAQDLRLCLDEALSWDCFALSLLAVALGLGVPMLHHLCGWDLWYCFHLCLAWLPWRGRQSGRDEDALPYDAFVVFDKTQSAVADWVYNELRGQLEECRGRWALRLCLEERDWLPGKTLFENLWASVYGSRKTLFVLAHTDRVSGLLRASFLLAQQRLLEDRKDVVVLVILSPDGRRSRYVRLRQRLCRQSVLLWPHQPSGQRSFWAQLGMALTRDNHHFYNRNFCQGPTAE
In words: TLR9 inhibition reporter assay (HEK-Blue cells, SEAP reporter, ODN2006 stimulation). The format is cell-based. To be noted: HEK-Blue cells overexpressing human TLR9, ODN2006 5 nM. The method in brief:
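Human TLR7/8/9 HEK-Blue reporter lines; dose range 0.05 nM–50 μM; 30 min RT preincubation; stimulus gardiquimod 7.5 μM / R848 15.9 μM / ODN2006 5 nM respectively; 22 h, 37 °C; SEAP detected colorimetrically.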
In general terms: A reporter such as luciferase makes a cellular process visible.

The target in a further assay is T2, human TLR7 (Homo sapiens, UniProt Q9NYK1).
T2 construct: host or cells: HEK-Blue cells
T2 sequence (Q9NYK1 27-1049): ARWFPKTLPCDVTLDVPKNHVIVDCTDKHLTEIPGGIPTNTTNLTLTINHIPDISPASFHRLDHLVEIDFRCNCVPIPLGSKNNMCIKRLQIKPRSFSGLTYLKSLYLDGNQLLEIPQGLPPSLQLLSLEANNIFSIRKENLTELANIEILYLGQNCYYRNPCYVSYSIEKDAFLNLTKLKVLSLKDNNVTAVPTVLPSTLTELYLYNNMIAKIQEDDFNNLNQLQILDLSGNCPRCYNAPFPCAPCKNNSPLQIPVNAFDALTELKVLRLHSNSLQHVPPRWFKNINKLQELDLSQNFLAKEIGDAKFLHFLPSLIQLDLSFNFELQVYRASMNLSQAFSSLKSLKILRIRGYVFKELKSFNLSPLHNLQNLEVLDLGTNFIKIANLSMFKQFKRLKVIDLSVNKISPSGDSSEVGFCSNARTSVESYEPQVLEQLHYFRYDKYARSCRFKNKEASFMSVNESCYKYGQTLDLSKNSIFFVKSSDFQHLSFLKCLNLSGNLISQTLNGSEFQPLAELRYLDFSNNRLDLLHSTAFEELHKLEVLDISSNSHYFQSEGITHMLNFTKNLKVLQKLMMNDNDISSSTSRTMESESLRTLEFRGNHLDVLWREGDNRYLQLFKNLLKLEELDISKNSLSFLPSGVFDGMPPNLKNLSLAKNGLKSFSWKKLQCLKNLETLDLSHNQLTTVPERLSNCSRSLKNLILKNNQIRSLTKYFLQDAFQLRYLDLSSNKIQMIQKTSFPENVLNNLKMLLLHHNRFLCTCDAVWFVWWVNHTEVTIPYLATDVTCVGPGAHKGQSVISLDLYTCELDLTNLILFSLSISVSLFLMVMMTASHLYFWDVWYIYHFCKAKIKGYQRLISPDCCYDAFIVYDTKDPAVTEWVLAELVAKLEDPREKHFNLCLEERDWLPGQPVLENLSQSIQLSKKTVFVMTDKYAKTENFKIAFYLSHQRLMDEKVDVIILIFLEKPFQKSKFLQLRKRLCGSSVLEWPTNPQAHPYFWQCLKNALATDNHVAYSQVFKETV
Description: TLR7 inhibition reporter assay (HEK-Blue cells, SEAP reporter, gardiquimod stimulation). The conditions noted are these: HEK-Blue cells overexpressing human TLR7, gardiquimod 7.5 μM. The format is cell-based. The method in brief: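 Cells (15000/well for TLR7, 20,000 for TLR8) were treated with compounds over 0.05 nM-50 μM final. After 22 h at 37° C, 5% CO2, SEAP was measured with HEK-Blue Detection reagent; percent inhibition was taken as reduction of agonist-plus-DMSO signal relative to a known inhibitor.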

Counter-ions that a name gives are not always drawn. Bounds are passed on as bounds.

A word on the IC50: it is the concentration needed to halve the response being measured. Higher therefore signals lower potency. For the compound `CCC(C)N1CCC(N2CCC(c3ccc4[nH]c(-c5ccc(OC)c(OC)c5)c(C)c4c3)CC2)CC1` (stereo not drawn) [Example 71, 5-(1′-(sec-butyl)-[1,4′-bipiperidin]-4-yl)-2-(3,4-dimethoxyphenyl)-3-methyl-1H-indole], the results for the IC50 against human TLR9 and on human TLR7 were 97 nM and 537 nM, respectively.
The corresponding values for `COc1ccc(-c2[nH]c3ccc(C4CCN(C5CCNCC5)CC4)cc3c2C)cc1OC` [Example 2, 5-([1,4′-bipiperidin]-4-yl)-2-(3,4-dimethoxyphenyl)-3-methyl-1H-indole dihydrochloride] are 206 nM and 985 nM.
The matching figures for `COc1ccc(-c2[nH]c3ccc(C4CCN(C5CCN(C6CCN(C)CC6)CC5)CC4)cc3c2C)cc1OC` [Example 81, 2-(3,4-dimethoxyphenyl)-3-methyl-5-(1″-methyl-[1,4′:1′,4″-terpiperidin]-4-yl)-1H-indole]: 190 nM and 538 nM.
On to `CCc1c(-c2ccc(OC)c(OC)c2)[nH]c2ccc(C3CCN(C(=O)CN4CCC(N5CCCCC5)CC4)CC3)cc12` [Example 158, 2-([1,4′-bipiperidin]-1′-yl)-1-(4-(2-(3,4-dimethoxyphenyl)-3-ethyl-1H-indol-5-yl)piperidin-1-yl)ethan-1-one], for which the IC50 came to 678 nM against human TLR9 and 219 nM against human TLR7.
On to `CCc1c(-c2ccc(OC)c(OC)c2)[nH]c2ccc(C3CCN(C(=O)CN4CCCN(C(C)=O)CC4)CC3)cc12` [Example 166, 2-(4-acetyl-1,4-diazepan-1-yl)-1-(4-(2-(3,4-dimethoxyphenyl)-3-ethyl-1H-indol-5-yl)piperidin-1-yl)ethan-1-one], for which the IC50 on human TLR9 is 6440 nM; against human TLR7, 300 nM.
The matching figures for `COc1ccc(-c2[nH]c3ccc(C4CCN(C5CCN(C)CC5)CC4)cc3c2C)cc1OC` [Example 11, 2-(3,4-dimethoxyphenyl)-3-methyl-5-(1′-methyl-[1,4′-bipiperidin]-4-yl)-1H-indole]: 216 nM and 934 nM.
The corresponding values for `COc1ccc(-c2[nH]c3ccc(C4CCN(Cc5cccc(NS(C)(=O)=O)c5)CC4)cc3c2C(C)C)cc1OC` [Example 260, N-(3-((4-(2-(3,4-dimethoxyphenyl)-3-isopropyl-1H-indol-5-yl)piperidin-1-yl)methyl)phenyl)methanesulfonamide] are 2700 nM and 64 nM.
The matching figures for `COc1ccc(-c2[nH]c3ccc(C4CCN(Cc5cnc(C)[nH]5)CC4)cc3c2C)cc1OC` [Example 4, 2-(3,4-dimethoxyphenyl)-3-methyl-5-(1-((2-methyl-1H-imidazol-5-yl)methyl)piperidin-4-yl)-1H-indole]: 190 nM and 3770 nM.
As for `COc1ccc(-c2[nH]c3ccc(C4CCN(C5CCN(c6ccccc6)C5)CC4)cc3c2C)cc1OC` (stereo not drawn) [Example 8, 2-(3,4-dimethoxyphenyl)-3-methyl-5-(1-(1-phenylpyrrolidin-3-yl)piperidin-4-yl)-1H-indole], the IC50 against human TLR9 and at human TLR7 was no less than 50000 nM throughout.
For `COc1ccc(-c2[nH]c3ccc(C4CCN(Cc5ccc(N(C)C)cc5)CC4)cc3c2C)cc1OC` [Example 37, 4-((4-(2-(3,4-dimethoxyphenyl)-3-methyl-1H-indol-5-yl)piperidin-1-yl)methyl)-N,N-dimethylaniline], the IC50 against human TLR9 was 637 nM; at human TLR7 it was 1050 nM.
The corresponding values for `COc1ccc(-c2[nH]c3ccc(C4CCN(Cc5ccc(N6CCCC6)cc5)CC4)cc3c2C)cc1OC` [Example 46, 2-(3,4-dimethoxyphenyl)-3-methyl-5-(1-(4-(pyrrolidin-1-yl)benzyl)piperidin-4-yl)-1H-indole] are 746 nM and 3290 nM.
For `COc1ccc(-c2[nH]c3ccc(C4CCN(CCN(C)CC(C)C)CC4)cc3c2C)cc1OC` [Example 110, N-(2-(4-(2-(3,4-dimethoxyphenyl)-3-methyl-1H-indol-5-yl)piperidin-1-yl)ethyl)-N,2-dimethylpropan-1-amine], the IC50 on human TLR9 stood at 288 nM; at human TLR7, 1120 nM.
